Literature values as cited in patent US20250090476A1, “PHARMACEUTICAL COMPOSITION AND BREXPIPRAZOLE ORALLY SOLUABLE FILM” (WISDOM PHARMACEUTICAL CO., LTD., priority 2022, published 2025).

solubility: low
Structure (SMILES): O=c1ccc2ccc(OCCCCN3CCN(c4cccc5sccc45)CC3)cc2[nH]1 [Brexpiprazole]
